BindingDB's records for patent US20240043470 (Cornell University, 2024)
pIC50: −log10 of the molar value.

What was measured:
[1] = target: T1, Proteasome subunit beta type-5 (Homo sapiens, UniProt P28074); test: IC50 Determination
T1 sequence (P28074 whole entry): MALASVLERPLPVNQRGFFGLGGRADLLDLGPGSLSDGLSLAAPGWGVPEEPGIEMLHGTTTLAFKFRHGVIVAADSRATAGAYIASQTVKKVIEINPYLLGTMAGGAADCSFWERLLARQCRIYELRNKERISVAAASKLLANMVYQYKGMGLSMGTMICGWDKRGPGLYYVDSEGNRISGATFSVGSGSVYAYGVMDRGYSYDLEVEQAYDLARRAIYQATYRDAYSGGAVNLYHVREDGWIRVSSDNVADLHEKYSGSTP

[2] = target: T2, Proteasome subunit beta type-8 (Homo sapiens, UniProt P28062); test: IC50 Determination
T2 sequence (P28062 whole entry): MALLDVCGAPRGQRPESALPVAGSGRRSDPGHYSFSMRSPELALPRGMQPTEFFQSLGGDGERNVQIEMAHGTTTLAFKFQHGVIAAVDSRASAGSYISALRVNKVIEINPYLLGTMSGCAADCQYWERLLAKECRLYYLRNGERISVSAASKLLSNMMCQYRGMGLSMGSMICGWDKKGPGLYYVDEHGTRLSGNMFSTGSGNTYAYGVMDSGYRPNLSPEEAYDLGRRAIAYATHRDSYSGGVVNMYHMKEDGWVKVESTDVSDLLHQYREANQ

For `CC(=O)N[C@H]1Cc2cccc(c2)Oc2ccc(cc2)C[C@@H](C(=O)NCc2ccccc2F)NC(=O)[C@H](CC(=O)N2CCC[C@@H]2c2ccccc2)NC1=O` [US20240043470, Compound 2-04], the pIC50 [1] was 4.51 and the pIC50 [2] was 5.04.
In the case of `O=C1CCc2cccc(c2)OCCCC[C@@H](C(=O)NCc2ccccc2F)NC(=O)[C@H](CC(=O)N2CCC[C@@H]2c2ccccc2)N1` [US20240043470, Compound 3-18], the pIC50 [1] was 4.35 and the pIC50 [2] was 5.52.
With `CC(=O)NC1Cc2cccc(c2)Oc2ccc(cc2)CC(C(=O)NCc2ccccc2F)NC(=O)C(CC(=O)N2CCC[C@@H]2c2ccccc2)NC1=O` (stereo partly specified) [US20240043470, Compound 2-05] the pIC50 [1] was 4.05 and the pIC50 [2] was 4.44.
`CC(=O)N[C@H]1CCCCOc2cccc(c2)C[C@@H](C(=O)NCC(F)(F)F)NC(=O)[C@H](CCc2ccccc2)NC1=O` [US20240043470, Compound 3-03] showed a pIC50 [1] of 4.92.
`O=C1N[C@@H](CC(=O)N2CCCC2)C(=O)N[C@H](C(=O)NCc2cccc3ccccc23)CCCCCCCCC[C@H]1Cc1ccccc1` [US20240043470, Compound 4-03] was tested, and the pIC50 [2] was 5.45.
`O=C(NC1Cc2cccc(c2)Oc2ccc(cc2)CC(C(=O)NCc2ccccc2F)NC(=O)C(CC(=O)N2CCC[C@@H]2c2ccccc2)NC1=O)c1ccccc1` (stereo partly specified) [US20240043470, Compound 2-07] was tested, and the pIC50 [1] was under 4.00 and the pIC50 [2] was 4.57.
`O=C(N[C@H]1Cc2cccc(c2)Oc2ccc(cc2)C[C@@H](C(=O)NCc2ccccc2F)NC(=O)[C@H](CC(=O)N2CCC[C@@H]2c2ccccc2)NC1=O)c1ccccc1` [US20240043470, Compound 2-06] was tested, and the pIC50 [2] was 4.71.
